The results in this text go back to patent US9119884B2, “LLP2A-bisphosphonate conjugates for osteoporosis treatment” (The Regents of the University of California, priority 2010, dated 2015).

Molecules are shown by their SMILES. “Also recorded” adds a separate entry of the source.

In assay [1] the test system is C57BL/6 mice. The assay is described as follows: Age-related trabecular bone loss after peak bone acquisition. Format: in vivo, mouse. From the text:
FIGS. 18A and B show LLP2A-Ale increases bone formation parameters at the trabecular DF (P<0.05) in C57BL/6 mice.

Assay [2] deals with C57BL/6 mice. The assay is described as follows: Guiding GFP-labeled mouse MSCs to bone. The following applies: for osteocalcin levels: 0.9 nmol/mouse I.P. one hour after GFP-MSC I.V. Format: in vivo. As for the experimental part:
LLP2A-Ale or LLP2A-Ale (1) were dissolved in 0.9% normal saline and injected I.P. to the mice one hour after MSC at a final solution of 0.9 nmol/mouse. Mice were sacrificed either at 3 days or 3 weeks. Osteocalcin, a bone formation marker, was measured at both 3 days and 3 weeks post-treatments. The lumbar vertebral bodies from the 3-day treatment groups were frozen and sectioned with cryostat. The sections were then stained with anti-GFP antibody. The transplanted MSCs were stained in brown.

Another assay relates to 129SvJ mice. Type of assay: in vivo, mouse.
Assay [3] relates to bone marrow cells undergoing osteogenic differentiation. Kind of assay: Rainbow bead cell-binding assay. Particulars: cells cultured in osteogenic medium for 7 days, incubated with rainbow beads. Type of assay: cell-based, mouse. As to the method:
Mouse MSCs were purchased from Invitrogen (Cat#S1502-100), cultured in osteogenic medium for 7 days and incubated with rainbow beads for one hour. […] Original magnification 10× on the right and 20× on the left of the top panel.
A new color-encoding method that facilitates high-throughput screening of OBOC combinatorial libraries was developed. This method differs from the traditional methods used to monitor integrin expressions in the MSCs, i.e., the use of antibody-based fluorescence-activated cell sorting (FACS) or immunoblotting. In the present method, polymer beads displaying chemical compounds or families of compounds were stained with oil-based organic dyes that are used as coding tags. […] These rainbow beads were prepared in a multiplex manner such that each ligand reacted to one or a series of integrins that were coded one color, See FIG. 7 (Luo, J., et al., J Comb Chem, 2008, 10(4): p. 599-604). This rainbow bead technique was then applied to determine the integrin profile on the cell surfaces.
In FIG. 7, bone marrow cells were cultured in osteogenic medium for 7 days and incubated with rainbow beads. The purple beads that coded with LLP2A, the ligand with high affinity and specificity against α4β1, were covered with layers of cells identified by green arrows. […]

For the next assay, the system named is MSC. The assay is described as follows: MSC osteoblast maturation, function, migration and lineage potentials. Format: cell-based.

As for `Cc1ccccc1NC(=O)Nc1ccc(CC(=O)N[C@@H](CCCCNC(=O)/C=C/c2cccnc2)C(=O)N[C@@H](CCCC(=O)O)C(=O)NC2(C(=O)NCCOCCOCCNC(=O)CCC(=O)NCCOCCOCCNC(=O)CCC(=O)N[C@@H](CCCCNC(=O)[C@H](N)CSC3CC(=O)N(CC4CCC(C(=O)NCCCC(O)(P(=O)(O)O)P(=O)(O)O)CC4)C3=O)C(N)=O)CCCCC2)cc1` (stereo partly shown) [LLP2A-Ale, LLP2A-Alendronate], in the assay with C57BL/6 mice [1] (P<0.05), the “bone formation parameters at the trabecular DF” value is listed as “increases”. In the assay with C57BL/6 mice [1] (mouse, in vivo), the “age-related trabecular bone (loss) after peak bone acquisition” value was “prevents” and the “bone formation parameters at trabecular bone surfaces in the lumbar vertebral bodies (LVB)” value is given as “increases”. Besides, in the assay on C57BL/6 mice [2] (lumbar vertebral bodies, three days), the “location of transplanted MSCs (anti-GFP staining)” value is “observed within bone marrow and adjacent to the trabecular bone surfaces”. For the same compound, the osteocalcin levels entry with C57BL/6 mice [2] (three days) is “significantly increased”. Moreover, the osteocalcin levels result with C57BL/6 mice [2] (three weeks) is reported as “significantly increased”. Further, the “dose-response at the cortical bone compartment” value in the assay with 129SvJ mice (10 ng vs 250 ng/mouse) is reported as “no dose-responses”. In the assay on 129SvJ mice (distal femur metaphysis), the mineral apposition rate result is reported as “significant increases”, the osteoblast surface result is “significant increases; also recorded: increased” and the “surface-based bone formation rate” value was “significant increases”. The trabecular thickness result in the assay with 129SvJ mice (distal femur microCT, four weeks, two dose levels, vs PBS) is on record as “increased”. In addition, the “increase in cancellous bone mass from baseline” value in the assay on 129SvJ mice (distal femur microCT, four weeks, LLP2A-Ale at higher dose level (250 ng)) was roughly 20%. Moreover, the “bridges between adjacent trabeculae” value in the assay on 129SvJ mice (mouse, in vivo) was “formed bridges between adjacent trabeculae”. Moreover, in the assay on 129SvJ mice (serum), the “early osteoblast maturation (P1NP levels)” value is given as “did not change” and the “osteoblast function (osteocalcin)” value is on record as “increased”. For the same compound, the cancellous bone mass entry with 129SvJ mice (through increasing the thickness of the trabeculae) is “increases”. Further, the “proliferating cell populations (BrdU)” value with 129SvJ mice (two days after i.v. injection, lumbar vertebral sections) is “increased these proliferating cell populations adjacent to bone surface; also recorded: increases”. In the assay with 129SvJ mice (young normal mice), the cancellous bone formation result was “increases” and the cortical bone formation entry is listed as “increases”. Also, in assay [3], the “cell binding to ligand-coded rainbow beads (affinity)” value is “high affinity”. Further, in the assay with MSC, the “MSC chondrogenic or adipogenic potentials” value is reported as “without affecting”; the “MSC osteoblast maturation, function and migration” value was “increases”.
